Consider 29 compounds from patent US9156796B2, “Benzoimidazole-carboxylic acid amide derivatives as APJ receptor modulators” (SANOFI, priority 2013, dated 2015).

The structures appear in SMILES notation.

For this assay, the target named is T1, human apelin receptor (Homo sapiens, UniProt P35414).
T1 construct: expressed in transfected cells
T1 sequence (P35414 1-380): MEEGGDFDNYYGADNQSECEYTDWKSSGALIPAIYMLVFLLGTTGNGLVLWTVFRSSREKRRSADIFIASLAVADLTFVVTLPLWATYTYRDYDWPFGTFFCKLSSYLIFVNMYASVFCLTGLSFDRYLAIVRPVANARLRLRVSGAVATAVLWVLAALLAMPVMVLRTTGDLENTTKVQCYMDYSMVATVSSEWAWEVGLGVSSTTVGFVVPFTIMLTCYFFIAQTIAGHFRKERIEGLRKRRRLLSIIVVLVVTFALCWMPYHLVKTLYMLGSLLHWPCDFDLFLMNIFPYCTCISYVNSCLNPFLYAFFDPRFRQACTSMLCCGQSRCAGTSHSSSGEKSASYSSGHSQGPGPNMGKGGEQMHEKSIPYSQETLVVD
Briefly: Determination of agonism on the human apelin receptor by a calcium fluorescence assay (FLIPR). As to conditions: HEK293 cells stably transfected with human apelin receptor and Giaq protein, Fluo-4 calcium fluorescence, read-out: EC50 (APJ agonism). It is filed as cell-based. In short, it runs like this:
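HEK293 cells stably co-expressing human apelin receptor and promiscuous Giaq, loaded 1 h at 37 °C with Fluo-4 (4 μM) in probenecid-containing Hepes buffer, pH 7.4. Compounds, at least 7 concentrations in triplicate, added in FLIPR Tetra; peak calcium fluorescence normalized to 1 μM apelin-13 as 100% to derive EC50.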

In the case of `CCC(CC)n1c(Cc2cccs2)nc2cc(C(=O)N[C@@H](CC(C)C)C(=O)N3C[C@H]4C[C@@H]3CN4Cc3ccccc3)ccc21` [Example 325, 1-(1-Ethyl-propyl)-2-thiophen-2-ylmethyl-1H-benzoimidazole-5-carboxylic acid [(S)-1-((1R,4R)-5-benzyl-2,5-diaza-bicyclo[2.2.1]heptane-2-carbonyl)-3-methyl-butyl]-amide], the EC50 amounted to 4410 nM.
In the case of `CCC(CC)n1c(Cc2cccs2)nc2cc(C(=O)N[C@@H](CC(C)C)C(=O)N(CC)CC3CCCCO3)ccc21` (stereo partly drawn) [Example 396, 1-(1-Ethyl-propyl)-2-thiophen-2-ylmethyl-1H-benzoimidazole-5-carboxylic acid {(S)-1-[ethyl-(tetrahydro-pyran-2-ylmethyl)-carbamoyl]-3-methyl-butyl}-amide], the EC50 is 4040 nM.
For the compound `CCC(CC)n1c(Cc2cccs2)nc2cc(C(=O)NC(CC(=O)O)CC3CCCCC3)ccc21` (single isomer, unassigned) [Example 454], the EC50 is 126 nM.
The figure for `CCC(CC)n1c(Cc2cccs2)nc2cc(C(=O)N[C@H](C(=O)O)C(C)C)ccc21` [Example 122, (S)-2-{[1-(1-Ethyl-propyl)-2-thiophen-2-ylmethyl-1H-benzoimidazole-5-carbonyl]-amino}-3-methyl-butyric acid] is 4380 nM.
In the case of `CC(C)C[C@H](NC(=O)c1ccc2c(c1)nc(Cc1ccco1)n2C1CCCCC1C)C(=O)O` (single isomer, unassigned) [Example 417], the EC50 came to 715 nM.
The figure for `CC(C)C[C@@H](CC(=O)O)NC(=O)c1ccc2c(c1)nc(Cc1cccs1)n2C1CCCCC1C` (single isomer, unassigned) [Example 436] is 24 nM; for `CCC(CC)n1c(Cc2ccco2)nc2cc(C(=O)N[C@@H](CC(C)C)C(=O)O)ccc21` [Example 81, (S)-2-{[1-(1-Ethyl-propyl)-2-furan-2-ylmethyl-1H-benzoimidazole-5-carbonyl]-amino}-4-methyl-pentanoic acid] it is less than 41 nM; for `CCC(CC)n1c(Cc2cccs2)nc2cc(C(=O)N[C@@H](CC(C)C)C(=O)NCC#N)ccc21` [Example 403, 1-(1-Ethyl-propyl)-2-thiophen-2-ylmethyl-1H-benzoimidazole-5-carboxylic acid [(S)-1-(cyanomethyl-carbamoyl)-3-methyl-butyl]-amide] it is 1610 nM.
On to `CCCN1CCCC(CNC(=O)[C@H](CC(C)C)NC(=O)c2ccc3c(c2)nc(Cc2cccs2)n3C(CC)CC)C1` (stereo partly drawn) [Example 309, 1-(1-Ethyl-propyl)-2-thiophen-2-ylmethyl-1H-benzoimidazole-5-carboxylic acid {(S)-3-methyl-1-[(1-propyl-piperidin-3-ylmethyl)-carbamoyl]-butyl}-amide], for which the EC50 is 482 nM.
On to `CCC(CC)n1c(Cc2cccs2)nc2cc(C(=O)N[C@@H](CC(C)C)C(=O)NCCCOCC3CC3)ccc21` [Example 391, 1-(1-Ethyl-propyl)-2-thiophen-2-ylmethyl-1H-benzoimidazole-5-carboxylic acid [(S)-1-(3-cyclopropylmethoxy-propylcarbamoyl)-3-methyl-butyl]-amide], for which the EC50 is 2180 nM.
In the case of `CCCCOC[C@H](CC(C)C)NC(=O)c1ccc2c(c1)nc(Cc1cccs1)n2C(CC)CC` [Example 210, 1-(1-Ethyl-propyl)-2-thiophen-2-ylmethyl-1H-benzoimidazole-5-carboxylic acid ((S)-1-butoxymethyl-3-methyl-butyl)-amide], the EC50 was determined as 10200 nM.
As for `C[C@@H]1CCCC[C@H]1n1c(Cc2cccs2)nc2cc(C(=O)N[C@H](CC(=O)O)CC3CCCC3)ccc21` [Example 61, (S)-4-Cyclopentyl-3-{[1-((1R,2R)-2-methyl-cyclohexyl)-2-thiophen-2-ylmethyl-1H-benzoimidazole-5-carbonyl]-amino}-butyric acid], the EC50 was 75 nM.
For the compound `C[C@@H]1CCCC[C@H]1n1c(Cc2cccs2)nc2cc(C(=O)NC(CC(=O)O)CC3CCCCC3)ccc21` (single isomer, unassigned) [Example 456], the EC50 came to 152 nM.
The figure for `CC1CCCCC1n1c(Cc2cccs2)nc2cc(C(=O)N[C@@H](CC3CCCCC3)C(=O)O)ccc21` (single isomer, unassigned) [Example 426] is 1630 nM; for `CCC(CC)n1c(Cc2cccs2)nc2cc(C(=O)NC(CC3CCCCCC3)C(=O)O)ccc21` (centres unmarked) [Example 39, 3-Cycloheptyl-2-{[1-(1-ethyl-propyl)-2-thiophen-2-ylmethyl-1H-benzoimidazole-5-carbonyl]-amino}-propionic acid] it is 1140 nM.
In the case of `C[C@@H]1CCCC[C@H]1n1c(Cc2cccs2)nc2cc(C(=O)NC3(C(=O)O)CCCCC3)ccc21` [Example 38, 1-{[1-((1R,2R)-2-Methyl-cyclohexyl)-2-thiophen-2-ylmethyl-1H-benzoimidazole-5-carbonyl]-amino}-cyclohexanecarboxylic acid], the EC50 worked out at 115 nM.
Regarding `CCC(CC)n1c(Cc2cccs2)nc2cc(C(=O)N[C@@H](CC(C)C)C(=O)NCCCOCc3ccccc3)ccc21` [Example 389, 1-(1-Ethyl-propyl)-2-thiophen-2-ylmethyl-1H-benzoimidazole-5-carboxylic acid [(S)-1-(3-benzyloxy-propylcarbamoyl)-3-methyl-butyl]-amide], the EC50 was 17100 nM.
With `CCC(CC)n1c(Cc2cccs2)nc2cc(C(=O)N[C@@H](CC(C)C)C(=O)NCCCSC)ccc21` [Example 248, 1-(1-Ethyl-propyl)-2-thiophen-2-ylmethyl-1H-benzoimidazole-5-carboxylic acid [(S)-3-methyl-1-(3-methylsulfanyl-propylcarbamoyl)-butyl]-amide], the half-maximal effective concentration (EC50) was 1800 nM.
With `CCC(CC)n1c(CC2CCCC2)nc2cc(C(=O)NC(CC(=O)O)c3ccccc3)ccc21` (centres unmarked) [Example 43, 3-{[2-Cyclopentylmethyl-1-(1-ethyl-propyl)-1H-benzoimidazole-5-carbonyl]-amino}-3-phenyl-propionic acid], the EC50 worked out at 14500 nM.
Then `CCC(CC)n1c(Cc2cccs2)nc2cc(C(=O)N[C@@H](CC(C)C)C(=O)N3CCCC(OC)C3)ccc21` (stereo partly drawn) [Example 376, 1-(1-Ethyl-propyl)-2-thiophen-2-ylmethyl-1H-benzoimidazole-5-carboxylic acid [(S)-1-(3-methoxy-piperidine-1-carbonyl)-3-methyl-butyl]-amide], with 1830 nM.
For `CCC(CC)n1c(Cc2cccs2)nc2cc(C(=O)NC(CCc3ccccc3)C(=O)O)ccc21` (centres unmarked) [Example 28, 2-{[1-(1-Ethyl-propyl)-2-thiophen-2-ylmethyl-1H-benzoimidazole-5-carbonyl]-amino}-4-phenyl-butyric acid], the EC50 is 18500 nM.
With `CC(C)CC(C)n1c(Cc2cccs2)nc2cc(C(=O)N[C@@H](CC(C)C)C(=O)O)ccc21` (stereo partly drawn) [Example 166, (S)-2-{[1-(1,3-Dimethyl-butyl)-2-thiophen-2-ylmethyl-1H-benzoimidazole-5-carbonyl]-amino}-4-methyl-pentanoic acid], the EC50 worked out at 3040 nM.
Turning to `CCC(CC)n1c(Cc2cccs2)nc2cc(C(=O)N[C@@H](CC(C)C)C(=O)NCCN(C)C)ccc21` [Example 267, 1-(1-Ethyl-propyl)-2-thiophen-2-ylmethyl-1H-benzoimidazole-5-carboxylic acid [(S)-1-(2-dimethylamino-ethylcarbamoyl)-3-methyl-butyl]-amide], the EC50 stood at 383 nM.
The figure for `CCC(CC)n1c(Cc2cccs2)nc2cc(C(=O)N[C@@H](CC(C)C)C(=O)NCCCOCC3CCCO3)ccc21` (stereo partly drawn) [Example 388, 1-(1-Ethyl-propyl)-2-thiophen-2-ylmethyl-1H-benzoimidazole-5-carboxylic acid {(S)-3-methyl-1-[3-(tetrahydro-furan-2-ylmethoxy)-propylcarbamoyl]-butyl}-amide] is 1590 nM.
With `CCC(CC)n1c(Cc2cccs2)nc2cc(C(=O)N[C@@H](CC(C)C)C(=O)N(C)CCc3ccccn3)ccc21` [Example 240, 1-(1-Ethyl-propyl)-2-thiophen-2-ylmethyl-1H-benzoimidazole-5-carboxylic acid {(S)-3-methyl-1-[methyl-(2-pyridin-2-yl-ethyl)-carbamoyl]-butyl}-amide], the EC50 is 614 nM.
For `CCCCC(CC(=O)O)NC(=O)c1ccc2c(c1)nc(Cc1cccs1)n2[C@@H]1CCCC[C@H]1C` (single isomer, unassigned) [Example 460], the EC50 was 122 nM.
With `CCC(CC)n1c(Cc2ccc(Cl)s2)nc2cc(C(=O)N[C@@H](CC(C)C)C(=O)O)ccc21` [Example 82, (S)-2-{[2-(5-Chloro-thiophen-2-ylmethyl)-1-(1-ethyl-propyl)-1H-benzoimidazole-5-carbonyl]-amino}-4-methyl-pentanoic acid], the EC50 worked out at 23300 nM.
With `CC(C)C[C@@H](CCC(=O)O)NC(=O)c1ccc2c(c1)nc(Cc1cccs1)n2C1CCCCC1C(F)(F)F` (stereo partly drawn) [Example 69, (R)-6-Methyl-4-{[2-thiophen-2-ylmethyl-1-(2-trifluoromethyl-cyclohexyl)-1H-benzoimidazole-5-carbonyl]-amino}-heptanoic acid], the EC50 stood at 339 nM.
In the case of `CC(C)C[C@@H](CC(=O)O)NC(=O)c1ccc2c(c1)nc(Cc1cncs1)n2[C@@H]1CCCC[C@H]1C` [Example 106, (S)-5-Methyl-3-{[1-((1R,2R)-2-methyl-cyclohexyl)-2-thiazol-5-ylmethyl-1H-benzoimidazole-5-carbonyl]-amino}-hexanoic acid], the EC50 stood at 48 nM.
